This experiment relates to spiral strips of the pulmonary artery of the guinea-pig. Briefly: relaxing action on potassium-depolarised, CaCl2-contracted spiral strips of the pulmonary artery (modified method of Godfraind and Kaba and of Schuman et al.). The experiment is classed as cell-based. The settings on record: for pIC50: Cavia porcellus, guinea-pig pulmonary artery strips, 40 mmol/l potassium, contraction by 0.5 mmol/l CaCl2, cumulative addition, average of 4 to 6 vessel strips, read-out: IC50 (concentration of the test substance which inhibits the contraction by 50%); for Duration of action: time needed after addition of the test substance until the starting value is obtained again. The procedure:
The pharmacological action of the compounds of the formula I was determined by a modified method of Godfraind and Kaba (Arch. Int. Pharmacodyn. Ther. 196, (Suppl) 35 to 49, 1972) and of Schuman et al. (Naunyn-Schmiedeberg's Arch. Pharmacol. 289, 409 to 418, 1975). In this connection, spiral strips of the pulmonary artery of the guinea-pig are depolarised with 40 mmol/l of potassium after equilibration in calcium-free Tyrode solution. An addition of 0.5 mmol/l of CaCl2 then induces a contraction. The relaxing action of the test substance is determined by cumulative addition in 1/2 log 10 stepped concentrations. From the concentration-effect curve (abscissa: -log mol/l of test substance, ordinate: % inhibition of the maximum contraction, average value of 4 to 6 vessel strips), the concentration of the test substance is determined which inhibits the contraction by 50% (=IC50, mol/l). The duration of action of the test substance is given by the time which is needed after the addition of the test substance until the starting value is obtained again.

pIC50: −log10 of the molar value.

As for `CCOC(=O)[N-]c1cn(N2CCOCC2)n[o+]1` [Molsidomine, NEthoxycarbonyl-3-morpholinosydnone imine, reference compound], the pIC50 was 3.52 and the Duration of action came out at 120 min.

Regarding `COc1ccc(C(=O)[N-]c2c[n+](N(C3CCCCC3)C3CCCCC3)no2)cc1` [N-p-Anisoyl-3-dicyclohexylaminosydnone imine], the pIC50 is 5.52 and the Duration of action is 300 min.

As for `Cl.N=c1c[n+](N(C2CCCCC2)C2CCCCC2)[n-]o1` [3-Dicyclohexylaminosydnone imine hydrochloride], the pIC50 is 6.40 and the Duration of action is 270 min.

For the molecule `CC(C)(C)C(=O)[N-]c1c[n+](N(C2CCCCC2)C2CCCCC2)no1` [N-Pivaloyl-3-dicyclohexylaminosydnone imine], the pIC50 is 5.30 and the Duration of action worked out at 310 min.

Take `Cl.N=c1c[n+](N2CCOCC2)[n-]o1` [SIN-1, 3Morpholinosydnone imine hydrochloride, reference compound]: the pIC50 was 6.00 and the Duration of action stood at 90 min.
